This passage reports IC50 results from patent publication US20240076297A1, “ADENOSINE A2A AND A2B RECEPTOR DUAL ANTAGONISTS FOR IMMUNO-ONCOLOGY” (Merck Sharp & Dohme LLC, priority 2020, published 2024).

Broadly, the pIC50 is the negative decadic logarithm of the IC50, by convention in mol/L. A lower pIC50 goes with a large IC50.

pIC50: −log10 of the molar value.

Chain of human A2A adenosine receptor (P29274 whole entry): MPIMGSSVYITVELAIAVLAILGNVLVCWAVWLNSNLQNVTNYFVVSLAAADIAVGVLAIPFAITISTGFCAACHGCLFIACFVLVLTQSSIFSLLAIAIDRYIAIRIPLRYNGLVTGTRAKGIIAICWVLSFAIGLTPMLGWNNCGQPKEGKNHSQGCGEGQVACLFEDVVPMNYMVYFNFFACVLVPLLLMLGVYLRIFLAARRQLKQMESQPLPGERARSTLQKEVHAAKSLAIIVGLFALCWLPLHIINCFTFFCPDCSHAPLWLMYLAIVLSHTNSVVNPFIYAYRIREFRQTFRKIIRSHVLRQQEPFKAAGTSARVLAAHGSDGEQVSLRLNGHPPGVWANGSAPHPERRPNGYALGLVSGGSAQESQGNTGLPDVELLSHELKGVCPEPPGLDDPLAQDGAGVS

The assay has as its target human A2A adenosine receptor (Homo sapiens (Human), UniProt P29274). Nature of the assay: A2A binding affinity using radioligand binding, Method (A). The following applies: Method (A): filtration radioligand binding, [3H] SCH58261, membranes expressing human A2A. An excerpt:
Method (A) describes the procedure used to measure A2A binding affinity using radioligand binding. Method (B) describes the procedure used to measure A2A binding affinity using SPA technology. The method used to measure A2B binding affinity is also described below. The method used to determine the A2A IC50 value reported for each compound in the table is indicated next to the reported value. The A2B IC50 value measured using the A2B binding affinity assay is shown in the table next to the compound under the corresponding A2A value.
The A2A receptor affinity binding assay measured the amount of binding of a tritiated ligand with high affinity for the A2A adenosine receptor to membranes made from HEK293 or CHO cells recombinantly expressing the human A2A adenosine receptor, in the presence of varying concentrations of a compound of the invention. The data were generated using either filtration binding or a homogenous scintillation proximity assay (SPA).
Method (A): Measurement of A2A Binding Affinity Using Radioligand Binding
148 μL (5 μg/mL) membranes (Perkin Elmer, Cat. No. RBHA2aM400UA) and 2 μL compounds of the invention to be tested (test compound) were transferred to individual wells of a 96-well polypropylene assay plate and incubated for 15 to 30 min at room temperature. [^3H] SCH58261 ((7-(2-phenylethyl)-5-amino-2-(2-furyl)-pyrazolo-[4,3-e]-1,2,4-triazolo[1,5-c]pyrimidine)) was diluted in assay buffer (50 mM Tris pH 7.4, 10 mM MgCl2, 0.005% Tween20) to a concentration of 4 nM and 50 μL transferred to each well of the assay plate. To define total and non-specific binding, wells containing 1% DMSO and 1 μM ZM241385 (Tocris Bioscience, Cat. No. 1036) respectively, were also included. The assay plate was incubated at room temperature for 60 min with agitation. Using a FilterMate Harvester® (Perkin Elmer), the contents of the assay plate were filtered through a UniFilter-96® PEI coated plate (Perkin Elmer Cat. No. 6005274 or 6005277). Filtering was achieved by aspirating the contents of the assay plate for 5 sec, then washing and aspirating the contents three times with ice-cooled wash buffer (50 mM Tris-HCl pH 7.4, 150 mM NaCl) and allowing the vacuum manifold to dry the plate for 30 sec. The filter plate was incubated for at least 1 h at 55° C. and allowed to dry. The bottom of the filter plate was sealed with backing tape. 40 μL Ultima Gold™ (Perkin Elmer, Cat. No. 6013329) was added to each well of the filter plate and the top of the plate was sealed with TopSeal-A PLUS® clear plate seal (Perkin Elmer, Cat. No. 6050185). The plate was incubated for at least 20 min, and then the amount of radioactivity remaining in each well was determined using a TopCount® (Perkin Elmer) scintillation counter. After normalization to total and non-specific binding, the percent effect at each compound concentration was calculated. The plot of percent effect versus the log of compound concentration was analyzed electronically using a 4-parameter logistic fit based on the Levenberg-Marquardt algorithm to generate IC50 values.
`Nc1nc2c(F)cc(F)cc2c2nc(CCCS(=O)(=O)C3CC3)nn12` [Example 13.20, 2-(3-(cyclopropylsulfonyl)propyl)-7,9-difluoro-[1,2,4]triazolo[1,5-c]quinazolin-5-amine] showed a pIC50 of 7.47.

`COc1cccc2c1nc(N)n1nc(CCC3CCc4c(nnn4C4CC(F)(F)C4)C3)nc21` (single isomer, unassigned) [Example 5.3A, (S or R)-2-(2-(1-(3,3-difluorocyclobutyl)-4,5,6,7-tetrahydro-1H-benzo[d][1,2,3]triazol-5-yl)ethyl)-7-methoxy-[1,2,4]triazolo-[1,5-c]quinazolin-5-amine] showed a negative logarithm of the IC50 (pIC50) of 9.05.

For the compound `COc1cccc2c1nc(N)n1nc(CCS(=O)(=O)C3CC3)nc21` [Example 13.3, 2-(2-(cyclopropylsulfonyl)ethyl)-7-methoxy-[1,2,4]triazolo[1,5-c]quinazolin-5-amine], the pIC50 was 8.80.

On to `COc1cccc2c1nc(N)n1nc(CCC3CCn4c(cnc4C4CC(F)(F)C4)C3)nc21` (single isomer, unassigned) [Example 7.5B, (R or S)-2-(2-(3-(3,3-difluorocyclobutyl)-5,6,7,8-tetrahydroimidazo-[1,5-a]pyridin-7-yl)ethyl)-7-methoxy-[1,2,4]triazolo[1,5-c]-quinazolin-5-amine], for which the negative logarithm of the IC50 (pIC50) is 9.30.

Take `COc1cc(F)cc2c1nc(N)n1nc(CCC3CCc4c(nnn4C4CC(F)(F)C4)C3)nc21` (single isomer, unassigned) [Example 7.6A, (S or R)-2-(2-(1-(3,3-difluorocyclobutyl)-4,5,6,7-tetrahydro-1H-benzo[d][1,2,3]triazol-5-yl)ethyl)-9-fluoro-7-methoxy-[1,2,4]-triazolo[1,5-c]quinazolin-5-amine]: the negative logarithm of the IC50 (pIC50) is 9.00.

Turning to `CN=S(=O)(CCc1nc2c3cccc(OC)c3nc(N)n2n1)C1CC1` (single isomer, unassigned) [Example 10.3B, (R or S)-(2-(5-amino-7-methoxy-[1,2,4]triazolo[1,5-c]quinazolin-2-yl)ethyl)(cyclopropyl)(methylimino)-λ^6-sulfanone], the negative logarithm of the IC50 (pIC50) is 8.43.

With `COc1cc(F)cc2c1nc(N)n1nc(CCC3CCc4c(cnn4C(C)C)C3)nc21` (single isomer, unassigned) [Example 7.7B, (R or S)-9-fluoro-2-(2-(1-isopropyl-4,5,6,7-tetrahydro-1H-indazol-5-yl)ethyl)-7-methoxy-[1,2,4]triazolo[1,5-c]quinazolin-5-amine], the negative logarithm of the IC50 (pIC50) was 8.59.

With `COc1cc(F)cc2c1nc(N)n1nc(CCC3CCc4nn(C(C)C)cc4C3)nc21` (single isomer, unassigned) [Example 5.4B, (R or S)-9-fluoro-2-(2-(2-isopropyl-4,5,6,7-tetrahydro-2H-indazol-5-yl)ethyl)-7-methoxy-[1,2,4]triazolo[1,5-c]quinazolin-5-amine], the pIC50 is 8.26.

As for `COc1cc(F)cc2c1nc(N)n1nc(CCC3CCc4c(nnn4C4CC(F)(F)C4)C3)nc21` (single isomer, unassigned) [Example 7.6B, (R or S)-2-(2-(1-(3,3-difluorocyclobutyl)-4,5,6,7-tetrahydro-1H-benzo[d][1,2,3]triazol-5-yl)ethyl)-9-fluoro-7-methoxy-[1,2,4]-triazolo[1,5-c]quinazolin-5-amine], the pIC50 is 8.38.

Compound `CC(C)(N)c1ccc([C@H]2C[C@@H]2Cc2nc3c4cc(F)cc(F)c4nc(N)n3n2)cc1` [Example 8.3B, 2-(((1R,2S)-2-(4-(2-aminopropan-2-yl)phenyl)cyclopropyl)methyl)-7,9-difluoro-[1,2,4]triazolo[1,5-c]quinazolin-5-amine] gave a negative-log IC50 (pIC50) of 7.60.

In turn, `CN=S(=O)(CCc1nc2c3cccc(OC)c3nc(N)n2n1)C1CC1` (single isomer, unassigned) [Example 10.3A, (S or R)-(2-(5-amino-7-methoxy-[1,2,4]triazolo[1,5-c]quinazolin-2-yl)ethyl)(cyclopropyl)(methylimino)-l6-sulfanone] showed a pIC50 of 8.85.

Turning to `COc1cc(F)cc2c1nc(N)n1nc(CCC3CCc4c(cnn4C(C)C)C3)nc21` (single isomer, unassigned) [Example 7.7A, (S or R)-9-fluoro-2-(2-(1-isopropyl-4,5,6,7-tetrahydro-1H-indazol-5-yl)ethyl)-7-methoxy-[1,2,4]triazolo[1,5-c]quinazolin-5-amine], the negative logarithm of the IC50 (pIC50) was 8.26.

`COc1cc(F)cc2c1nc(N)n1nc(CCC3CCn4c(cnc4C4CC(F)(F)C4)C3)nc21` (single isomer, unassigned) [Example 7.3B, (R or S)-2-(2-(3-(3,3-difluorocyclobutyl)-5,6,7,8-tetrahydroimidazo-[1,5-a]pyridin-7-yl)ethyl)-9-fluoro-7-methoxy-[1,2,4]triazolo[1,5-c]-quinazolin-5-amine] had a negative logarithm of the IC50 (pIC50) of 8.34.

In turn, `COc1cccc2c1nc(N)n1nc(CCC3CCc4c(cnn4C(C)C)C3)nc21` (single isomer, unassigned) [Example 7.8B, (R or S)-2-(2-(1-isopropyl-4,5,6,7-tetrahydro-1H-indazol-5-yl)ethyl)-7-methoxy-[1,2,4]triazolo[1,5-c]quinazolin-5-amine] showed a negative logarithm of the IC50 (pIC50) of 8.62.

The compound `COc1cccc2c1nc(N)n1nc(CC3CC3c3ccc(C(C)(C)N)cc3)nc21` (single isomer, unassigned) [Example 8.5A, 2-(((1S,2R or 1R,2S)-2-(4-(2-aminopropan-2-yl)phenyl)-cyclopropyl)methyl)-7-methoxy-[1,2,4]triazolo-[1,5-c]quinazolin-5-amine] showed a pIC50 of 8.33.

Turning to `COc1cccc2c1nc(N)n1nc(CCC3CCc4c(cnn4C(C)C)C3)nc21` (single isomer, unassigned) [Example 7.8A, (S or R)-2-(2-(1-isopropyl-4,5,6,7-tetrahydro-1H-indazol-5-yl)-ethyl)-7-methoxy-[1,2,4]triazolo[1,5-c]quinazolin-5-amine], the pIC50 was 8.68.

`COc1cccc2c1nc(N)n1nc(CC3CC3c3ccc(C(C)(C)O)cc3)nc21` (single isomer, unassigned) [Example 8.6B, 2-(4-((1R,2S or 1S,2S)-2-((5-amino-7-methoxy-[1,2,4]triazolo-[1,5-c]quinazolin-2-yl)methyl)cyclopropyl)phenyl)propan-2-ol] showed a negative logarithm of the IC50 (pIC50) of 9.52.

Compound `COc1cccc2c1nc(N)n1nc(COC3CCc4c(nnn4C4CC(F)(F)C4)C3)nc21` (single isomer, unassigned) [Example 2.2B, (R or S)-2-(((1-(3,3-difluorocyclobutyl)-4,5,6,7-tetrahydro-1H-benzo[d][1,2,3]triazol-5-yl)oxy)methyl)-7-methoxy-[1,2,4]triazolo[1,5-c]quinazolin-5-amine] gave a negative logarithm of the IC50 (pIC50) of 9.22.
